Measured values: publication PMC5626011 (Bioorganic & Medicinal Chemistry Letters, 2017)

Columns and labels:
EBOV (Makona) = assay type: cell-based, Ebola virus (EBOV)
SUDV (Gulu) = assay type: cell-based, Sudan virus (SUDV)
MARV (Ci67) = assay type: cell-based, Marburg virus (MARV)
[1] = system: recombinant Ebola virus Makona expressing ZsGreen (rEBOV/ZsG); assay type: cell-based

SMILES | EBOV EC50 (EBOV (Makona)) | SUDV EC50 (SUDV (Gulu)) | MARV EC50 (MARV (Ci67)) | EC50 ([1]; read-out: EBOV EC50) [nM] | fold less potent than compound 1 [1] [fold]
COc1nc(N)ncc1-c1cn(COCCO)cn1 [compound 1] | no detectable activity | no detectable activity | no detectable activity | 2200 ± 300 | –
CCC(CC)COC(=O)[C@H](C)N[P@](=O)(OCCOCn1cnc(-c2cnc(N)nc2OC)c1)Oc1ccccc1 [compound 3] | – | – | – | – | ~10
